Laboratory results from patent US20170002057A1, “COMPOSITIONS CONTAINING FUSION PROTEIN OF ALBUMIN AND ANALOGS THEREOF, METHODS FOR MAKING AND USING THE SAME” (NAL PHARMACEUTICAL GROUP LIMITED, priority 2015, published 2017).

Columns and labels:
[1] = In vivo pharmacokinetic profile in rat after IV injection (ELISA)
Procedure: The rat was restrained manually at the designated time points, approximately 300 μL of blood sample was collected via jugular vein into EDTA-K2 tubes and subsequently centrifuged at 4° C. and 1500 g for 10 min to obtain plasma samples.
Standard curve was prepared by the following procedure. Duplicate standard points were prepared by serially diluting Free SST Stock (1 mg/mL) with diluent buffer to produce 5, 2.5, 1.25, 0.625, 0.313, 0.156, 0.078 and 0.039 ng/mL solutions.
Standard curve was prepared by the following procedure. Duplicate standard points were prepared by serially diluting SST fusion protein (2.42 mg/mL) with pooled rat plasma to produce 225, 112.5, 56.2, 28.1, 14.1, 7.03, 3.51 and 1.76 ng/mL solutions.
ELISA assay has been performed as described in Example 5-3.

[2] = molecular target: human somatostatin sst2 receptor (human) (UniProt P30874); assay: cell-based or functional assay
Sequence of UniProt P30874 (P30874 whole entry, the tested form may be a part): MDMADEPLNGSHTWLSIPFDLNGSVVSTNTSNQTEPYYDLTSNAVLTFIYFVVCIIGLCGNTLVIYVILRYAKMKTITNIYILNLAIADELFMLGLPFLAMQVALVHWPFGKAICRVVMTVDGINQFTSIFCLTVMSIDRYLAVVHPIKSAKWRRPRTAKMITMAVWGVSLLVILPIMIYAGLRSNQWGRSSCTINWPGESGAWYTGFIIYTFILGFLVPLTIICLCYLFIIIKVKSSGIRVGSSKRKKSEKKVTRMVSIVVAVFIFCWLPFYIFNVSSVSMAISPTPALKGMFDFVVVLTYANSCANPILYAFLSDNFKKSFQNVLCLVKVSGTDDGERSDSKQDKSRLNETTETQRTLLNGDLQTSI

[3] = rat, intravenous, SST 0.02 mg/kg, SST fusion protein 27.1 mg/kg

EC50 values of the inhibition of cAMP production [2] [nM]	Compound	clinical signs after injection ([1]; male Sprague Dawley rats, tail vein injection, SST 0.02 mg/kg, SST fusion protein 27.1 mg/kg)	level at 1 min ([1]; male, Sprague Dawley, in vivo, rat, IV 0.02 mg/kg, sampling time 1 min, read-out: Plasma SST concentration, Mean) [ng/mL]	level at 2 min ([1]; male, Sprague Dawley, in vivo, rat, IV 0.02 mg/kg, sampling time 2 min, read-out: Plasma SST concentration, Mean) [ng/mL]	level at 4 min ([1]; male, Sprague Dawley, in vivo, rat, IV 0.02 mg/kg, sampling time 4 min, read-out: Plasma SST concentration, Mean) [ng/mL]	level at 0.1 h ([1]; male, Sprague Dawley, in vivo, rat, IV 0.02 mg/kg, sampling time 6 min, read-out: Plasma SST concentration, Mean) [ng/mL]	level at 8 min ([1]; male, Sprague Dawley, in vivo, rat, IV 0.02 mg/kg, sampling time 8 min, read-out: Plasma SST concentration, Mean) [ng/mL]	AUC(0-inf) ([1]; male, Sprague Dawley, in vivo, rat, intravenous, SST 0.02 mg/kg, SST fusion protein 27.1 mg/kg, read-out: AUC0-inf, Mean (converted)) [ng·h/mL]	AUC(0-t) ([1]; male, Sprague Dawley, in vivo, rat, intravenous, SST 0.02 mg/kg, SST fusion protein 27.1 mg/kg, read-out: AUC0-t, Mean (converted)) [ng·h/mL]	clearance ([1]; male, Sprague Dawley, in vivo, rat, intravenous, SST 0.02 mg/kg, SST fusion protein 27.1 mg/kg, read-out: CL, Mean) [mL/min/kg]	Vd ([1]; male, Sprague Dawley, in vivo, rat, intravenous, SST 0.02 mg/kg, SST fusion protein 27.1 mg/kg, read-out: Vdss, Mean) [L/kg]	Plasma SST concentration, Mean ([1]; rat, IV 0.02 mg/kg, sampling time 0 min) [ng/mL]	AUMC0-inf, Mean [1, 3] [mg · h^2/mL]	AUMC0-t, Mean [1, 3] [mg · h^2/mL]	MRTIV, Mean [1, 3] [h]
–	C[C@H](N)C(=O)NCC(=O)N[C@H]1CSSC[C@@H](C(=O)O)NC(=O)[C@H](CO)NC(=O)[C@H]([C@@H](C)O)NC(=O)[C@H](Cc2ccccc2)NC(=O)[C@H]([C@@H](C)O)NC(=O)[C@H](CCCCN)NC(=O)[C@H](Cc2c[nH]c3ccccc23)NC(=O)[C@H](Cc2ccccc2)NC(=O)[C@H](Cc2ccccc2)NC(=O)[C@H](CC(N)=O)NC(=O)[C@H](CCCCN)NC1=O [Free SST]	no negative clinical signs were observed	7.13	4.95	4.3	1.07	2.95	0.73	0.483	510	2.19	0	173	55.9	4.1
0.041	Octreotide (peptide)	–	–	–	–	–	–	–	–	–	–	–	–	–	–
